{"source": "patent US5726203A", "about": "“Qinghaosu derivatives against AIDS” (priority 1993, dated 1998)", "key": {"HIV-1 (MT4)": {"test_system": "HIV-1 (MT4)", "assay": "Anti-HIV effect on MT4 cells, virus antigen expression (immunoenzymatic method)", "assay_type": "cell-based", "description": "The virus used was HIV-1 which had been obtained from Professor Montagnier of the Pastear Institute, France. The virus titer used in the experiment was 1×10^4 TCID50 /ml. The cell culture used was CEM cell line which was cultivated in the HIV laboratory of Institute of Virology, Chinese Academy of Preventive Medicine, for cultivation storage of HIV-1.\nThe compounds used in the experiment were qinghaosu, dihydroqinghaosu, Artesunate, Artemether, dihydroqinghaosu-methylcarbamate, dihydroqinghaosu-benzenecarbamate, qinghaosu-morpholinyl propylether maleate, dihydroqinghaosu-diethyl amino ethyl ether maleate, deoxyqinghaosu-morpholinyl ethyl ether maleate, qinghaosu-morpholinyl propanol ether maleate, qinghaosu-3,5-dimonpholinyl methyl-4-hydroxy benzyl ether maleate, dihydroqinghaosu-m-chlorobenzoate, qinghaosu-3-pyrrolidinylmethyl-4-hydroxybenzoate oxalate, and qinghaosu-3-morpholinylmethyl-4-hydroxybenzoate oxalate. […] The concentration of the original solution of these compounds were all 1 mg/ml.\n(§1) a. Freshly cultured MT4 cells (5×10^5 /ml) were co-cultivated with the virus fluid (10^3 TCID50 /ml) in a CO2 incubator at 37° C. for 1-1.5 hours. RPMI 1640 complete medium (containing 10% Bovine serum and antibiotics, such as penicillin) was used to wash the unbound virus.\n(§2) Complete medium was added to correct the concentration for use.\n(§3) The experiment was carried out on the plates with 96 wells. 0.1 ml of the above-mentioned infected MT4 cell suspension was added into each well, and then 0.1 ml of various concentrations of the drugs were added. […] Each concentration of the drugs was added into two wells. Both the experiment group and the control group were incubated in a CO2 incubator at 37° C. The drug solution were changed 3 days later, and the following observations were carried out 6 days afterwards.\nb. Observation on the growth situation of cells. Trypan blue dye was used to observe the quantity of live cells in each group.\n(§4) c. Determination of the virus antigen expression. The immunoenzymatic method was used to examine the virus antigen expression. Cells from each group were separately smeared in two wells. They were fixed with cold acetone, HIV-positive serum was dropped into the wells. After incubated in a CO2 incubator at 37° C. for 30 minutes, they were washed with PBS for 3 times. Enzyme-labelled SPA was dropped into the wells. They were incubated in the same condition for 30 minutes, washed with PBS for 3 times, and then put in substrate solution to stain for 2-3 minutes, washed with distilled water, and observed under microscope. Normal cells were colorless, whereas virus-carrying cells appeared browrish red.\nThe mark used were as follows:\nThe experiment was repeated two to three times.\nThe concentration of the original fluid of these compounds were all 1 mg/ml. 0.1 ml was taken and added into 0.1 ml of virus-carrying cell suspension, thus the reaction concentrations were as follows: in the original fluid group, 0.1 mg/0.2 ml, i.e., 0.5 mg/ml; in 1×10^-1group, 0.05 mg/ml; in 1×10^-2 group, 0.005 mg/ml; in 1×10^-3 group, 0.0005 mg/ml, i.e., 0.5 μg/ml; and on the analogy of this."}, "U937 HIV-1 [1]": {"test_system": "U937 HIV-1", "assay": "Inhibition effect on HIV-1 infected U937 cells (macrophage cell line), HIV antigen test (IE)", "assay_type": "cell-based", "details": "for Antigen test (IE): U937 HIV-1", "method": "as §1, §2, §3, §4\n(§5) Furthermore, a part of the compounds according to the present invention were used to test their inhibition effect on U937 cell line (macrophage cell line)according to the methods in Experiment 1."}, "U937 HIV-1 [2]": {"test_system": "U937 HIV-1", "assay": "Inhibition effect on HIV-1 infected U937 cells, activity of reverse transcriptase", "assay_type": "cell-based", "details": "control 24502", "description": "as §5"}, "HIV": {"test_system": "HIV", "details": "cited from earlier work"}, "[3]": {"test_system": "virus within infected macrophages", "details": "cited from earlier work"}, "[4]": {"details": "cited from earlier work"}, "HIV-infected macrophages": {"test_system": "HIV-infected macrophages", "details": "cited from earlier work"}, "Plasmodium Berghei": {"test_system": "Plasmodium Berghei", "assay": "Peters' four day inhibition test in mice, erythrocytic stage of Plasmodium Berghei", "assay_type": "in vivo", "details": "once a day D0-D3, Hybrid Kunming strain mice, read-out: SD50 (the source's name)", "description": "Effect on Erythrocytic Stage of Plasmodium Berghei 1. \"Four day inhibition test\" in mice To determinate the SD50 with Peters' \"four day inhibition test\". Hybrid Kunming strain mice, body weight 18-22 g, were inculated with 1×10^7 parasites infected RBC intraperitoneally on D0. Dihydroqinghaosu-methylcarbamate, dihydroqinghaosu-butylcarbamate, dihydroqinghaosu-benzenecarbamate and dihydroqinghaosu-4-nitrobenzenecarbamate with different concentration were given once a day from D0 -D3. Blood smears from mouse's tail were made on D4, stained with Gimsa reagent and examined under microscope to count the infected and uninfected erthrocyte to get infected rate. Inhibitory rates of different dosages were calculated by following formula. The SD50 was calculated by the simplified probit analysis: [formula]"}, "Acute toxicity in mice": {"assay": "Acute toxicity in mice", "assay_type": "in vivo", "details": "for LD50: mouse, in vivo, po", "method": "Animals: Hybrid swiss strain mice (provided by Animal House of Institute of Chinese Mateia Media, China Academy of Traditional Chinese Medicine), 20-22 grams, less than 6 weeks age of both sexes fed in laboretory for 3-5 days observation and a random taking food and drinking.\nDrugs: Dihydroqinghaosu-methylcarbamate and dihydroqinghaosu-benzenecarbamate.\nAbove two drugs in powder form were dissolved into peanut oil. The biggest dose were 2000 mg/kg and 2161 mg/kg respectively. The distances between two dose groups were 0.7 and 0.68 respectively, with 5 dose groups each drugs.\nMethod: The mice were given single dose of above compound respectively intragastrically, the acute intoxication manifestrations were observed the LD value (LD5, LD50 and LD95) and B value were determined by three days mortality."}, "[5]": {"assay": "Subacute toxicologic study", "details": "in vivo, read-out: basic safe dosage"}, "[6]": {"details": "F + M, single dose intragastrically"}, "[7]": {"details": "F, single dose intragastrically"}, "[8]": {"details": "M, single dose intragastrically"}}, "data": [{"compound": "Cc1cn([C@H]2C[C@H](N=[N+]=[N-])[C@@H](CO)O2)c(=O)[nH]c1=O", "note": "[AZT, 3'-azido-3'-deoxythymidine, reference compound]", "values": [{"measurement": "effect on HIV-1 (MT4), virus antigen expression", "setting": "HIV-1 (MT4); 1 × 10^-1 (50 μg/ml)", "result": "- (positive cells were not seen in the whole well)"}, {"measurement": "virus-carrying (pink) cells on the smear", "setting": "HIV-1 (MT4); 1×10^-1, 1×10^-2, 1×10^-3 group", "result": "entirely no pink cells"}, {"measurement": "effect on HIV-1 (MT4), virus antigen expression", "setting": "HIV-1 (MT4); 1 × 10^-2 (5 μg/ml)", "result": "- (positive cells were not seen in the whole well)"}, {"measurement": "effect on HIV-1 (MT4), virus antigen expression", "setting": "HIV-1 (MT4); 1 × 10^-3 (0.5 μg/ml)", "result": "- (positive cells were not seen in the whole well)"}, {"measurement": "Antigen test (IE)", "setting": "U937 HIV-1 [1]; 1 μg/ml", "result": "+ (there were 2-3 or more positive cells in the whole well)"}, {"measurement": "inhibition on U937 infected HIV-1", "setting": "U937 HIV-1 [1]; from Table 2", "result": "does not show the inhibition"}, {"measurement": "Activity of reverse transcription (CPM)", "setting": "U937 HIV-1 [2]; 1 μg/ml", "result": 10865, "unit": "CPM"}, {"measurement": "anti-HIV activity in vitro", "setting": "HIV", "result": "found to possess anti-HIV activity in vitro"}, {"measurement": "inhibitory effect on the virus within infected macrophages", "setting": "[3]", "result": "does not exert inhibitory effect on the virus within infected macrophages"}, {"measurement": "toxicity after use", "setting": "[4]; 4-6 weeks after the use of AZT", "result": "inhibition of bone marrow appears, then severe anemia develops"}]}, {"compound": "Trichosanthin", "values": [{"measurement": "toxic substance from treated HIV-infected macrophages", "setting": "HIV-infected macrophages", "result": "produced and released a soluble toxic substance which might exert serious destructive effect to human brain cells"}, {"measurement": "neurotoxicity in clinical trial", "setting": "[4]; clinical trial", "result": "neurotoxicity in clinical trial, and in severe cases temporary dementia and even coma appeared"}]}, {"compound": "CC1CCC2C(C)C(OC(=O)Nc3ccccc3)OC3OC4(C)CCC1C32OO4", "note": "(stereo not shown) [Dihydroqinghaosu-benzenecarbamate]", "values": [{"measurement": "effect on HIV-1 (MT4), virus antigen expression", "setting": "HIV-1 (MT4); 1 × 10^-1 (50 μg/ml)", "result": "- (positive cells were not seen in the whole well)"}, {"measurement": "effect on HIV-1 (MT4), virus antigen expression", "setting": "HIV-1 (MT4); 1 × 10^-2 (5 μg/ml)", "result": "- (positive cells were not seen in the whole well)"}, {"measurement": "effect on HIV-1 (MT4), virus antigen expression", "setting": "HIV-1 (MT4); 1 × 10^-3 (0.5 μg/ml)", "result": "- (positive cells were not seen in the whole well)"}, {"measurement": "effect on HIV-1 (MT4), virus antigen expression", "setting": "HIV-1 (MT4); 1 × 10^-4 (0.05 μg/ml)", "result": "± (there were only 1-2 doubtful positive cells in whole well)"}, {"measurement": "inhibition on HIV", "setting": "HIV-1 (MT4); according to Table 1", "result": "distinct inhibition on HIV"}, {"measurement": "Antigen test (IE)", "setting": "U937 HIV-1 [1]; 50 μg/ml", "result": "- (positive cells were not seen in the whole well)"}, {"measurement": "Activity of reverse transcription (CPM)", "setting": "U937 HIV-1 [2]; 50 μg/ml", "result": 2305, "unit": "CPM"}, {"measurement": "ED50", "setting": "Plasmodium Berghei", "result": 0.29, "unit": "mg/kg"}, {"measurement": "Death distribution of mice, exp./death", "setting": "Acute toxicity in mice; 480 mg/kg, female", "result": "6/0"}, {"measurement": "Death distribution of mice, exp./death", "setting": "Acute toxicity in mice; 480 mg/kg, female + male", "result": "12/1"}, {"measurement": "Death distribution of mice, exp./death", "setting": "Acute toxicity in mice; 480 mg/kg, male", "result": "6/1"}, {"measurement": "Death distribution of mice, exp./death", "setting": "Acute toxicity in mice; 686 mg/kg, female", "result": "6/1"}, {"measurement": "Death distribution of mice, exp./death", "setting": "Acute toxicity in mice; 686 mg/kg, female + male", "result": "12/3"}, {"measurement": "Death distribution of mice, exp./death", "setting": "Acute toxicity in mice; 686 mg/kg, male", "result": "6/2"}, {"measurement": "Death distribution of mice, exp./death", "setting": "Acute toxicity in mice; 980 mg/kg, female", "result": "6/2"}, {"measurement": "Death distribution of mice, exp./death", "setting": "Acute toxicity in mice; 980 mg/kg, female + male", "result": "12/4"}, {"measurement": "Death distribution of mice, exp./death", "setting": "Acute toxicity in mice; 980 mg/kg, male", "result": "6/2"}, {"measurement": "Death distribution of mice, exp./death", "setting": "Acute toxicity in mice; 1400 mg/kg, female", "result": "6/4"}, {"measurement": "Death distribution of mice, exp./death", "setting": "Acute toxicity in mice; 1400 mg/kg, female + male", "result": "12/7"}, {"measurement": "Death distribution of mice, exp./death", "setting": "Acute toxicity in mice; 1400 mg/kg, male", "result": "6/3"}, {"measurement": "Death distribution of mice, exp./death", "setting": "Acute toxicity in mice; 2000 mg/kg, female", "result": "6/6"}, {"measurement": "Death distribution of mice, exp./death", "setting": "Acute toxicity in mice; 2000 mg/kg, female + male", "result": "12/12"}, {"measurement": "Death distribution of mice, exp./death", "setting": "Acute toxicity in mice; 2000 mg/kg, male", "result": "6/6"}, {"measurement": "LD5", "setting": "Acute toxicity in mice; [6]", "result": 463.33, "unit": "mg/kg"}, {"measurement": "LD95", "setting": "Acute toxicity in mice; [6]", "result": 2452.08, "unit": "mg/kg"}, {"measurement": "slope (B)", "setting": "Acute toxicity in mice; [6]", "result": 4.546}, {"measurement": "LD5", "setting": "Acute toxicity in mice; [7]", "result": 603.91, "unit": "mg/kg"}, {"measurement": "LD95", "setting": "Acute toxicity in mice; [7]", "result": 1993.51, "unit": "mg/kg"}, {"measurement": "slope (B)", "setting": "Acute toxicity in mice; [7]", "result": 6.343}, {"measurement": "LD5", "setting": "Acute toxicity in mice; [8]", "result": 352.10, "unit": "mg/kg"}, {"measurement": "LD95", "setting": "Acute toxicity in mice; [8]", "result": 3069.59, "unit": "mg/kg"}, {"measurement": "slope (B)", "setting": "Acute toxicity in mice; [8]", "result": 3.498}, {"measurement": "LD50", "setting": "Acute toxicity in mice; [6]", "result": 1070, "unit": "mg/kg"}, {"measurement": "LD50", "setting": "Acute toxicity in mice; [7]", "result": 1100, "unit": "mg/kg"}, {"measurement": "LD50", "setting": "Acute toxicity in mice; P.O. (per os)", "result": 1060, "unit": "mg/kg"}, {"measurement": "LD50", "setting": "Acute toxicity in mice; single dose intragastrically", "result": 1040, "unit": "mg/kg"}, {"measurement": "NOAEL", "setting": "[5]", "result": 54, "unit": "mg/kg/day"}]}]}
